Laboratory results reported in patent US10071103B2, “Treatments for resistant acne” (VYOME BIOSCIENCES PVT. LTD., priority 2014, dated 2018).
Converted amounts (≈) assume the structure as drawn. “Also recorded” adds a separate entry of the source. Counter-ions that a name gives are not always drawn.

Tests used:
[1] = tested on: IL-6; assay: P. acnes-induced IL-6 release in THP-1 cells (ELISA); format: cell-based
Experimental: (§1) Method: Preparation of Stimulant for Inflammation: P. acnes culture suspension was prepared in PBS and the cell number in the suspension was adjusted to approximately 5×10^8 CFU/ml by measuring the cell density using a Densimat. The bacterial suspension was then heat killed at 80° C. for 30 min and stored at −80° C. until further use.
(§2) Cells were seeded in a 96-well format (2×10^5 THP-1 cells per well) in media containing 10% FBS. The cells were stimulated to induce inflammatory cytokines using 3 McFarland equivalent heat-killed P. acnes. Cells in control wells were treated with PBS. One hour after induction with P. acnes, test agents were added to the induced cells at appropriate concentrations to be tested (compound 91 at 25 μg/ml). The plates were incubated at 37° C. for 24 hours. After 24 h, the plates were centrifuged to pellet the cells and the supernatants were collected. The cell culture supernatants thus obtained were analyzed for levels of cytokines (IL-1α, IL-1β, IL-6 and IL-8) by ELISA using R&D Systems kits for individual cytokines following the manufacturer's instructions.
as §1, with “Preparation” for “Method: Preparation”, “stimulant” for “Stimulant”, “inflammation:” for “Inflammation:”
(§3) Cells were seeded in a 96-well format (2×10^5 THP-1 cells per well) in media containing 10% FBS. The cells were stimulated to induce inflammatory cytokines using 3 McFarland equivalent heat-killed P. acnes. Cells in control wells were treated with PBS. One hour after induction with P. acnes, test agents were added to the induced cells at appropriate concentrations (Besifloxacin at 10 and 30 μg/ml; Adapalene at 0.04 and 0.4 μg/ml). The plates were incubated at 37° C. for 24 hours. After 24 h, the plates were centrifuged to pellet the cells and the supernatants were collected. The cell culture supernatants thus obtained were analyzed for cytokine levels (IL-6 and IL-8) by ELISA using R&D Systems kits for individual cytokines following the manufacturer's instructions.

[2] = tested on: IL-8; assay: P. acnes-induced IL-8 release in THP-1 cells (ELISA); format: cell-based
Experimental: as §1, §2
as §1, with “Preparation” for “Method: Preparation”, “stimulant” for “Stimulant”, “inflammation:” for “Inflammation:”
as §3

[3] = tested on: THP-1 cells; assay: Viability of THP-1 cells under treatment; format: cell-based; settings: Example 61; each tested condition
[4] = pH dependent solubility of besifloxacin.HCl; format: physicochemical; settings: pH of about 4.5 or below solubilizes the drug
Source text: Preparation of drug-loaded (suspended form) gel via a conventional method usually leads to exposure of the drug to a wide range of pH conditions, which may lead to, in some instances, solubilization of the drug, and then reprecipitation. This solubilization-reprecipitation phenomenon in most cases leads to change in original particle size, impurity profile or crystal pattern, or others. […] The solubilized besifloxacin then, upon increase in pH (during formulation preparation), reprecipitates, which may result in one or more unwanted changes.

[5] = tested on: P. acnes MTCC 1951; assay: MIC by micro broth dilution (Alamar blue), clindamycin-susceptible P. acnes; format: cell-based, Propionibacterium acnes; settings: for MIC: Cutibacterium acnes, MTCC1951, read-out: MIC Susceptible P. acnes (1951) strain; for Activity / bacterial killing, dose response curve (in words): clindamycin-susceptible MTCC 1951
Experimental: (§4) The plates were incubated at 37° C. for 48 h under anaerobic condition for P. acnes and 37° C. for 24 h for S. aureus The plates were read under Bio-Rad plate reader at 595 nm for optical density to generate the dose-response curves. The MIC of the test compound was recorded by addition of Alamar blue dye.
(§5) P. acnes (MTCC 3297, MTCC 1951& CCARM 9010) are cultured in Brain Heart Infusion (BHI) Broth at 37° C. for 48-72 h under anaerobic condition. The test compounds/formulations are initially diluted with suitable solvent and further diluted with BHI broth to get the required concentrations. Samples (100 μl) of different concentrations (prepared by serial dilution) are added to 96-well plate. To the wells, 100 μl of P. acnes BHI broth culture is added [culture turbidity adjusted against 0.5 McFarland standard (approx 1.5×10^8), and further diluted 100-fold with sterile BHI broth]. In addition Growth Control and Sterility Control are created using 100 μl each of P. acnes BHI broth culture and plain BHI broth, respectively.
(§6) Plates are incubated at 37° C. for 48-72 hrs under anaerobic condition. The plate is read under Bio-Rad plate reader @ 595 nm for optical density to generate the dose-response curves. The MIC of the test compound is recorded by addition of Alamar blue dye.
BHI broth and BHI agar media were prepared as per the manufacturer's instruction and autoclaved at 121° C. for 15 minutes. […] For MIC determination testing, gels are dissolved in the solvent and further diluted with BHI broth. Then, 96 wells plate are filled with 100 μl of BHI broth containing drug with different concentration to get the final concentrations of 0.06, 0.13, 0.25, 0.5, 1 and 2 μg/ml in different lanes (lane 1 to lane 6). Remaining lanes of the 96 well plate are used as growth control and sterility control. Finally, P. acnes culture suspension (approx 1.5×10^6) is added in all the wells except sterility control wells and plate is incubated at 37° C. for 48-72 h under anaerobic condition. At the end of 72 h, Alamar blue solution (20 μl) is added into the wells and incubated at 37° C. for 2 h. Plate is visualized for bacterial inhibitions and MIC values of the tested samples are determined. […]

[6] = tested on: P. acnes CCARM 9010; assay: MIC by micro broth dilution (Alamar blue), clindamycin-resistant/nonresponsive P. acnes; format: cell-based, Propionibacterium acnes; settings: for MIC: Cutibacterium acnes, CCARM9010, read-out: MIC Resistant P. acnes (9010) strain; for Activity / bacterial killing, dose response curve (in words): clindamycin-nonresponsive CCARM 9010
Experimental: as §4, §5, §6

[7] = tested on: S. aureus MTCC 6908; assay: MIC by micro broth dilution, laboratory S. aureus strain; format: cell-based, Staphylococcus aureus; settings: for MIC: Staphylococcus aureus, MTCC6908, Table 6, read-out: MIC Susceptible S. aureus (6908) strain
Experimental: as §4
S. aureus MTCC 6908 were grown in Tryptone Soya Agar (TSA) at 37° C. for 24 hours. […] Plates were incubated at 37° C. for 24 hours. […] (2) Zone of Inhibition (ZOI): S. aureus MTCC 6908 were grown in Tryptone Soya Agar (TSA) at 37° C. for 24 hours. BHA plates are spreaded with 100 μl of 0.5 McFarland standard equal bacterial suspension. Test samples (drugs/formulations) were dissolved in water/solvent based on the solubility. Sterile disc (6 mm) were loaded with 10 μl of test samples (of various concentration of drug), and were placed above the spreaded plates. Plates were incubated at 37 C for 24 h, followed by ZOI measurement. (3) Time Kill Assay: 0.5 McFarland standard equal S. aureus culture was prepared in sterile water. Besifloxacin gels were diluted in Tryptone Soya broth (TSB) to get final concentration of 25 μg/ml. Then 900 μl of S. aureus 0.5 McFarland standard equal culture and 100 μl of diluted Besifloxacin gel was mixed to obtain final Besifloxacin concentration, 2.5 μl g/ml. Total reaction mixture (1 ml) was incubated at 37° C. in a tube rotator. After 2 and 6 h exposure, bacterial suspension was placed on Tryptone soya agar plate and incubated at 37° C. for 24 h.
Inoculated plates were incubated at 37° C. for 24 hours.

[8] = target: T1, E. coli DNA gyrase (Escherichia coli, UniProt P0AES4+P0AES6); assay: DNA gyrase super-coiling activity assay (Topogen kit, relaxed pHOT1 plasmid); format: biochemical; settings: 1 μM and 2.5 μM
T1 construct: purchased Topogen Inc
T1 sequence (P0AES4 whole entry, one chain of several): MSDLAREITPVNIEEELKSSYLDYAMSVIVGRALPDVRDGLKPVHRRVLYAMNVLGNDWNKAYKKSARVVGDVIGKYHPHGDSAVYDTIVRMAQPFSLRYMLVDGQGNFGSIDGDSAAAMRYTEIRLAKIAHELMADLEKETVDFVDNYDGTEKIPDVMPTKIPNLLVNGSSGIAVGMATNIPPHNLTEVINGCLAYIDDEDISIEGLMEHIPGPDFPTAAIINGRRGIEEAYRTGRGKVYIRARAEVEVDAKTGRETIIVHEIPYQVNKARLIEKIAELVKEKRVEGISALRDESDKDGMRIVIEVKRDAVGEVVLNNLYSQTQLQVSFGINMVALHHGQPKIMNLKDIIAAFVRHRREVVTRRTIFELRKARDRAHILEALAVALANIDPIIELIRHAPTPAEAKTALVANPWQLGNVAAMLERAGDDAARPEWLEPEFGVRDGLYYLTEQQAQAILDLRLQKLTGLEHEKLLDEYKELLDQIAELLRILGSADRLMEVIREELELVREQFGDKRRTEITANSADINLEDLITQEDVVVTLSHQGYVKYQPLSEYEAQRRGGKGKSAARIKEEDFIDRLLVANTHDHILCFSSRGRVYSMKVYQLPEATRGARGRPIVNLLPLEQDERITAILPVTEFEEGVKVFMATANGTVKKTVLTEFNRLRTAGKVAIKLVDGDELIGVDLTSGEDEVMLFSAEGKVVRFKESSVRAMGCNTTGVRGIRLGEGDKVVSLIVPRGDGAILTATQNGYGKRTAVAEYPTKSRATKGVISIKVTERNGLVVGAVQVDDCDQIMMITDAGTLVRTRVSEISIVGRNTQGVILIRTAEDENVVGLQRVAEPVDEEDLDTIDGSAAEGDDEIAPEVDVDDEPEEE
Experimental: DNA super-coiling activity was assayed using DNA gyrase assay kit (Topogen Inc.) with relaxed pHOT1 E. coli plasmid DNA according to manufacturer's protocol. The standard reaction mixture (20 μl) contained 35 mM Tris-HCl (pH 7.5), 24 mM KCl, 4 mM MgCl2, 2 mM dithiothreitol, 1.8 mM spermidine, 1 mM ATP, 6.5% glycerol, 0.1 mg/ml bovine serum albumin (BSA), 10 μg/ml relaxed pHOT1 plasmid DNA and 1 U of DNA gyrase. The reaction mixture was incubated at 37° C. for 1 h in presence of selected compounds/fluoroquinolone at different concentrations. The reaction was terminated by addition of ⅕ volume of loading dye (4 μl) followed by proteinase K (50 μg/ml) and again incubated at 37° C. for half an hour. 20 μl chloroform/isoamyl alcohol (24:1) was added to each tube and vortexed briefly. Thereafter, the blue aqueous phase was separated out and analyzed by 1% agarose gel electrophoresis. The gel was stained by ethidium bromide for half an hour and destained with water for 15 mins. The gel was then visualized in a trans-illuminator and photographed.

[9] = tested on: IL-1α; assay: P. acnes-induced IL-1α release in THP-1 cells (ELISA); format: cell-based; settings: 25 μg/ml, 100% = P. acnes induced cells
Experimental: as §1, §2

[10] = tested on: IL-1β; assay: P. acnes-induced IL-1β release in THP-1 cells (ELISA); format: cell-based; settings: 25 μg/ml, 100% = P. acnes induced cells
Experimental: as §1, §2

[11] = 25 μg/ml, THP-1 cells, 100% = P. acnes induced cells
[12] = Cells + P. acnes + 0.4 μg/ml (positive control), THP-1 cells, 24 h, Table 70
[13] = Cells + P. acnes + Dexamethasone 0.4 μg/ml, THP-1 cells, Table 71

N[C@@H]1CCCCN(c2c(F)cc3c(=O)c(C(=O)O)cn(C4CC4)c3c2Cl)C1 [Besifloxacin.HCl, besifloxacin hydrochloride]
Effect on P. acnes-induced IL-6 levels (in words) ([1]; Example 61, besifloxacin 10, 30 μg/ml, adapalene 0.04, 0.4 μg/ml, hydrochloride): significant dose-dependent decrease; also recorded: impart individual anti-inflammatory effects
Reduction in IL-6 levels compared to untreated control ([1]; besifloxacin.HCl alone at 10 μg/ml): approximately 40%
Effect on P. acnes-induced IL-8 levels (in words) ([2]; Example 61, besifloxacin 10, 30 μg/ml, adapalene 0.04, 0.4 μg/ml): does not show similar effect
Cell viability compared to untreated cells [3]: over 80%
Solubility (in words) [4]: pH dependent solubility

Cc1oc(=O)oc1CN1CCN(c2cc3c(cc2F)c(=O)c(C(=O)OC(CCl)Cn2c([N+](=O)[O-])cnc2C)c2n3C(C)S2)CC1 (stereo not drawn) [Compound 94, 6-Fluoro-1-methyl-7-[4-(5-methyl-2-oxo-[1,3]dioxol-4-ylmethyl)-piperazin-1-yl]-4-oxo-4H-2-thia-8b-aza-cyclobuta[a]naphthalene-3-carboxylic acid 1-chloromethyl-2-(2-methyl-5-nitro-imidazol-1-yl)-ethyl ester]
MIC [5]: 3 µg/mL (≈ 4.52 µM)
Activity / bacterial killing, dose response curve (in words) [5]: hardly showed any activity
MIC [6]: 3 µg/mL (≈ 4.52 µM)
Activity / bacterial killing, dose response curve (in words) [6]: hardly showed any activity
MIC [7]: 2.8 µg/mL (≈ 4.22 µM)
Inhibition of super-coiling activity of DNA gyrase (in words) [8]: able to inhibit the super-coiling activity

CCCCCCCCCCCC(=O)OC(CN1CCN(c2cc3c(cc2F)c(=O)c(C(=O)O)c2n3C(C)S2)CC1)Cn1c([N+](=O)[O-])cnc1C (stereo not drawn) [Compound 113, 7-{4-[2-Dodecanoyloxy-3-(2-methyl-5-nitro-imidazol-1-yl)-propyl]-piperazin-1-yl}-6-fluoro-1-methyl-4-oxo-4H-2-thia-8b-aza-cyclobuta[a]naphthalene-3-carboxylic acid]
MIC [5]: 8.2 µg/mL (≈ 11.5 µM)
Activity / bacterial killing, dose response curve (in words) [5]: hardly showed any activity
MIC [6]: 8 µg/mL (≈ 11.2 µM)
Activity / bacterial killing, dose response curve (in words) [6]: hardly showed any activity
Activity against S. aureus strain (in words) [7]: least activities
MIC [7]: > 8.2 µg/mL
Inhibition of super-coiling activity of DNA gyrase (in words) [8]: able to inhibit the super-coiling activity

Cc1ncc([N+](=O)[O-])n1CC(O)CCCCN1CCN(c2cc3c(cc2F)c(=O)c(C(=O)O)c2n3C(C)S2)CC1 (stereo not drawn) [Compound 115, 6-Fluoro-7-{4-[5-hydroxy-6-(2-methyl-5-nitro-imidazol-1-yl)-hexyl]-piperazin-1-yl}-1-methyl-4-oxo-4H-2-thia-8b-aza-cyclobuta[a]naphthalene-3-carboxylic acid]
MIC [5]: 0.4 µg/mL (≈ 0.696 µM)
Activity / bacterial killing, dose response curve (in words) [5]: more than double MIC values
MIC [6]: 0.8 µg/mL (≈ 1.39 µM)
Activity / bacterial killing, dose response curve (in words) [6]: more than double MIC values
MIC [7]: 1.6 µg/mL (≈ 2.78 µM)
Inhibition of super-coiling activity of DNA gyrase (in words) [8]: able to inhibit the super-coiling activity

Cc1ncc([N+](=O)[O-])n1CC(O)CCN1CCN(c2cc3c(cc2F)c(=O)c(C(=O)O)c2n3C(C)S2)CC1 (stereo not drawn) [Compound 116, 6-Fluoro-7-{4-[3-hydroxy-4-(2-methyl-5-nitro-imidazol-1-yl)-butyl]-piperazin-1-yl}-1-methyl-4-oxo-4H-2-thia-8b-aza-cyclobuta[a]naphthalene-3-carboxylic acid]
MIC [5]: 0.4 µg/mL (≈ 0.732 µM)
Activity / bacterial killing, dose response curve (in words) [5]: more than double MIC values
MIC [6]: 0.8 µg/mL (≈ 1.46 µM)
Activity / bacterial killing, dose response curve (in words) [6]: more than double MIC values
MIC [7]: 1.64 µg/mL (≈ 3 µM)
Inhibition of super-coiling activity of DNA gyrase (in words) [8]: able to inhibit the super-coiling activity; also recorded: highly potent; also recorded: best gyrase inhibiting activity

C[C@@H]1C[C@H]2[C@@H]3CCC4=CC(=O)C=C[C@]4(C)[C@@]3(F)[C@@H](O)C[C@]2(C)[C@@]1(O)C(=O)CO [Dexamethasone]
Percentage reduction in P. acnes induced IL-6 release [1, 11]: 99.54%
Expression of Cytokines IL-6 (pg/ml) Mean [1, 12]: 2.15 pg/mL
Expression of Cytokines IL-6 (pg/ml) Mean [1, 13]: 2.15 pg/mL
Reduction in IL-6 levels ([1]; Example 61, positive control): ~100%
Percentage reduction in P. acnes induced IL-8 release [2, 11]: 58.78%
Expression of Cytokines IL-8 (pg/ml) Mean [2, 12]: 1080.8 pg/mL
Expression of Cytokines IL-8 (pg/ml) Mean [2, 13]: 1080.76 pg/mL
Percentage reduction in P. acnes induced IL-1α release [9]: 53.83%
Percentage reduction in P. acnes induced IL-1β release [10]: 64.73%
